Counter-ions that a name gives are not always drawn. Like-named read-outs stand apart in the source and are kept apart here.
How the values were obtained:
[1] = test system: MDA-MB-231 (breast cancer line); assay: Curative effects on palpable tumors, MDA-MB-231 cells in scid/scid mice; format: in vivo; details: 11.25 mg/kg or 22.5 mg/kg daily once tumors palpable
Procedure: In this series of experiments, effects of various compounds of the present invention on tumor development were tested using two protocols. The first protocol is directed to the testing of curative effects of these compounds in different cell lines. In this protocol, cancerous cells are inoculated to the animals, and the inoculated animals were left without any further treatment until the development of tumors. As soon as the tumors became palable (4 mm^3), the compounds of this invention were administered daily to the animals.

[2] = test system: lymphocytes from healthy donors; assay: Cytotoxicity on lymphocytes from healthy donors; format: cell-based, human; details: 48 hours after treatment, even at 1:1,000 dilution; three healthy donors
Procedure: (§1) Several dilutions of each compound tested were added to the wells (12 wells per plate, TPP), and 1 ml of cells from the parent solution was added per well after a line had been completed. The dilutions were made using the culture medium, and following dilutions were tested: control, which contained no compound of this invention; 1:100; 1:1,000; 1:2,000; 1:5,000; and 1:10,000. The starting concentrations for these dilutions were: 50 mg/ml for compound A; 10 mg/ml for compound B; 25 mg/ml for compound C; and 5 mg/ml for compound D. The results were analyzed by manual counting and Alamar reduced assay.
The blood from healthy donors was collected on citrate and diluted 1:1 with 0.15M NaCl. The dilution (6 ml) was loaded onto 3 ml of lymphoprep® (Nycomed), and the mixture was centrifuged at 800 g for 30 minutes at room temperature. The white cells were isolated and washed with RPMI1640 and 10% FBS. The white cells were diluted to provide 450,000 cells/m in RPMI1640/10% FSB medium. The tests for the compounds of this invention were performed according to the same procedures described in Section 5.1.1.

[3] = test system: K562, U937, Jurkat, T47-D, MCF7, BT20 and 184B5 cell lines; assay: Cytotoxicity in malignant and immortalized cell lines (manual counting, Alamar assay); format: cell-based; details: for cytotoxic activity: dilutions greater than 1:1,000, especially about 1:10,000; for cytotoxicity: dilutions of from 1:100 to 1:1,000, 48 and 144 hours after treatment
Procedure: These four compounds were added at different concentrations to cultures of various malignant cell lines and normal cells. The cell lines used for these tests were the following:
All leukemic cell lines were grown and used in logarithmic phase. After one day of treatment, the cells were isolated, counted and diluted in a regular growth medium to provide the cell density of about 75×10^3 cells/ml for reading on plates at 48 hours after the treatment, and […] for reading at 144 hours after the treatment.
as §1
(§2) The cells were grown on their respective propagation medium and seeded 24 hours before the compounds are added. The cells were trypsinized, and 50,000 cells/well and 10,000 cells/well were seeded in order to read the plates at 48 hours and 144 hours after being treated by the compounds, respectively.
(§3) On the day of the treatment, the medium was replaced by 10 ml each of series dilution of the compounds, consisting of: control, which contained no compound of this invention; 1:100 dilution; 1:1,000 dilution; 1:2,000 dilution; and 1:5,000 dilution. The starting concentrations for these dilutions were: 50 mg/ml for compound A; 10 mg/ml for compound B; 25 mg/ml for compound C; and 5 mg/ml for compound D. The dilution was made using the growth medium.
A tested compound is regarded as being active in cytotoxicity where the percentage of surviving cells after the treatment with the compound is less than 30%.

TCTP = TCTP expression in treated U937 cells (western blot); format: cell-based; details: 24 hours, various dilutions
Procedure: U937 cells were treated with various dilutions of hydroxyzine, brompheniramine and promethazine for 24 hours as denoted in FIG. 23A. Starting concentrations were: 50 mg/ml for […] (“A”); 10 mg/ml for brompheniramine (“B”); and 25 mg/ml for promethazine (“C”). The proteins were isolated from these cells and loaded onto a gel for western blot analysis. A specific anti-TCTP (anti-HRF) antibody was used to visualize the location of TCTP. […] The level of actin in equal loading of extract was visualized by antiactin antibody (Santa Cruz Biotechnology). No substantial difference between the level of actin in treated and untreated cells was observed.

U937 cells = assay: Antineoplastic activity, U937 cells injected in scid/scid mice, treatment from day 1; format: in vivo; details: 11.25 mg/kg daily intraperitoneally; six mice
Procedure: Ten million U937 cells were subcutaneously injected into scid/scid mice. One injection was carried out per each of the 6 mice tested per set. The excipient or the compounds tested were administered intraperitoneally on day 1, i.e., the day of U937 cell line inoculation, of the experiment. The excipients or compounds were administered once daily. The tumor sizes were measured on day 5, day 8, day 12, day 14 and day 19 after the injection.

[4] = test system: Poly ADP-Ribose Polymerase (PARP); assay: PARP cleavage in treated U937 cells (western blot); format: cell-based; details: 24 hours
Procedure: U937 cells were treated with various concentrations of hydroxyzine and promethazine for 24 hours. The proteins were isolated from these cells and loaded onto a gel for a western blot analysis. A specific anti-PARP antibody was used to visualize the location of PARP.

LoVo cancer cells = assay: Cytotoxicity on LoVo cancer cells; format: cell-based; details: LoVo colorectal adenocarcinoma cells
Procedure: as §2, §3

U937 = format: in vivo; details: treatment from day 1, cells inoculated after more than 24 hours, daily administration
Procedure: The second protocol was designed to test the preventive effects of the compounds of this invention on tumorigenesis. In this protocol, the animals have been treated with various compounds of the present invention on day 1. After more than 24 hours, tumoral cells were inoculated. The administration of the compounds of this invention was maintained daily. The cell line used for this test was U937.

[5] = test system: blastic cells from AML patients; assay: Inhibition of viability of fresh leukemic cells (trypan blue exclusion); format: cell-based, human; details: Homo sapiens, day 3; for cytotoxicity at 100 µM: 10^-4 M; for cytotoxicity at 10 µM: 10^-5 M
Summary of the method: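 Blasts from AML samples 1 to 5 (least to most differentiated) were incubated with or without anti-histamine derivatives, with Polaramine as negative control. Viable counts by trypan blue exclusion at day 3, with Wright-Giemsa morphology. Values are % growth inhibition versus negative control.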

[6] = 72 h, MEAN over AML patients, read-out: In Vitro Percent Inhibition of Viability, MEAN
[7] = 72 h, patient ID 4, FAB AML2, read-out: In Vitro Percent Inhibition of Viability
[8] = 72 h, patient ID 14, FAB AML5, read-out: In Vitro Percent Inhibition of Viability
[9] = AML1, 72 h, patient ID 1, FAB AML1, read-out: In Vitro Percent Inhibition of Viability

Question: How did the tumor volume [1] turn out when `CC(CN1c2ccccc2Sc2ccccc21)N(C)C` (stereo not shown) [promethazine] was run?
Answer: The same is also true for certain animals

Question: What about the surviving cell counts [2] of the same compound?
Answer: substantial

Question: What about the cytotoxic activity [3] of the same compound?
Answer: little cytotoxic activity

Question: What about the cytotoxicity [3] of the same compound?
Answer: very good cytotoxicity

Question: And the “expression of TCTP” value (TCTP)?
Answer: inhibit the expression of TCTP

Question: What about the “mice that developed a tumor” value (U937 cells) of the same compound?
Answer: one out of six

Question: What about the “PARP cleavage (induction of apoptosis)” value [4] of the same compound?
Answer: cleave PARP

Question: And the “growth / resistance of LoVo cells” value (LoVo cancer cells)?
Answer: unaffected

Question: And the “growth / resistance of LoVo cells” value (LoVo cancer cells; listed as C)?
Answer: totally resistant

Question: And the “tumor growth compared to the negative control” value (U937)?
Answer: decrease in tumor growth

Question: What does the source list for `OCCOCCN1CCN(C(c2ccccc2)c2ccc(Cl)cc2)CC1` (stereo not shown) [hydroxyzine, hydroxyzine dihydrochloride]?
Answer: surviving cell counts [2]: substantial; cytotoxic activity [3]: little cytotoxic activity; cytotoxicity [3]: very good cytotoxicity; expression of TCTP (TCTP): inhibit the expression of TCTP; PARP cleavage (induction of apoptosis) [4]: cleave PARP; growth / resistance of LoVo cells (LoVo cancer cells; dihydrochloride): unaffected; growth / resistance of LoVo cells (LoVo cancer cells; listed as A, dihydrochloride): totally resistant; cytotoxicity at 100 µM [5, 6]: 55%; cytotoxicity at 10 µM [5, 6]: 12%; cytotoxicity at 100 µM [5, 7]: 44%; cytotoxicity at 10 µM [5, 7]: 9%; cytotoxicity at 100 µM [5, 8]: 45%; cytotoxicity at 10 µM [5, 8]: 18%; cytotoxicity at 100 µM [5, 9]: 77%; cytotoxicity at 10 µM [5, 9]: 10%
